We go through eight compounds from ChEMBL document CHEMBL1201862, “PubChem BioAssay data set” (2004).

Test systems include SK-OV-3; A549; LXFL 529; MOLT-4; UACC-257; OVCAR-4; OVCAR-5; SF-295; NCI-H23; K562; LOX IMVI; ACHN; HT-29; CCRF-CEM; OVCAR-3; SF-268; Malme-3M; Hs-578T; T47D; BT-549.
What all share (assay): NCI-60 cell line screen, 48 h

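Where inhibition never reached the appropriate level, the endpoint shown equals the highest concentration tested. Otherwise, values were interpolated linearly from a five-concentration, 48-hour dose response in 96-well plates. GI50 = concentration required for 50% inhibition of growth.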 The source made the active and inactive calls. No stated cut-off is given here; in the data, active = GI50 up to about 1.1 µM and inactive = higher.

`CCOC(=O)NN1C(=O)C(=P(c2ccccc2)(c2ccccc2)c2ccccc2)C(C(=O)OCC)=C1C`: the GI50 in the assay with SK-OV-3, in the assay on A549, in the assay with LXFL 529, with MOLT-4, with UACC-257 and with OVCAR-4 was > 100 µM (inactive) in each case. The GI50 in the assay with OVCAR-5, with SF-295, with NCI-H23, in the assay on K562, in the assay on LOX IMVI and in the assay on ACHN was > 100 µM (inactive) throughout. For the same compound, the GI50 with HT-29, in the assay on CCRF-CEM, in the assay on OVCAR-3, in the assay with SF-268 and in the assay on Malme-3M was > 100 µM (inactive) in each case.
For the compound `COc1ccc2nc(C)cc(NCCCCCCCCCNc3cc(C)nc4ccc(OC)cc34)c2c1`, the GI50 with SK-OV-3 is 8.79 µM (inactive); in the assay with A549, 1.5 µM (inactive); in the assay with LXFL 529, 1.17 µM (inactive); in the assay with MOLT-4, 1.29 µM (inactive); in the assay on UACC-257 it was 13.7 µM (inactive); in the assay on Hs-578T, 1.64 µM (inactive). Moreover, the GI50 with T47D is 1.73 µM (inactive); in the assay on OVCAR-4 it was 2.19 µM (inactive); in the assay with BT-549 it was 8.95 µM (inactive); in the assay on OVCAR-5, 2.55 µM (inactive); with SF-295, 1.11 µM (active); with NCI-H23, 1.73 µM (inactive). In addition, the GI50 was 0.264 µM (active) in the assay on K562; 0.714 µM (active) in the assay with LOX IMVI; 8.87 µM (inactive) with ACHN; 0.55 µM (active) in the assay with HT-29; 1.27 µM (inactive) in the assay on CCRF-CEM; 1.24 µM (inactive) in the assay with OVCAR-3. Also, the results for the GI50 in the assay with SF-268 and in the assay with Malme-3M were 1.93 µM (inactive) and 9.27 µM (inactive), respectively.
In the case of `O=C1c2ccccc2C2(O)Oc3cccc(O)c3C12O` (stereo unspecified), the GI50 with SK-OV-3, with A549, in the assay on LXFL 529, in the assay with MOLT-4, with UACC-257 and in the assay with OVCAR-4 was > 100 µM (inactive) in each case. Besides, the GI50 with OVCAR-5, with SF-295, in the assay with NCI-H23, with K562, with LOX IMVI and in the assay with ACHN was > 100 µM (inactive) each time. Besides, the GI50 in the assay on HT-29, in the assay with CCRF-CEM, in the assay on OVCAR-3, in the assay with SF-268 and in the assay on Malme-3M was > 100 µM (inactive) in each case.
In the case of `O=C(CSc1c2ccccc2nc2ccccc12)Nc1ccccc1-c1ccccc1NC(=O)CSc1c2ccccc2nc2ccccc12`, the GI50 is 80.4 µM (inactive) in the assay with SK-OV-3; 13.3 µM (inactive) in the assay on A549; 9.46 µM (inactive) in the assay with LXFL 529; 5.27 µM (inactive) in the assay on MOLT-4; 22 µM (inactive) in the assay on UACC-257; 1.48 µM (inactive) in the assay on OVCAR-4. The GI50 in the assay on OVCAR-5 was 56.6 µM (inactive); in the assay on SF-295 it was 25.6 µM (inactive); in the assay on NCI-H23 it was 18.9 µM (inactive); in the assay with K562, 2.37 µM (inactive); in the assay with LOX IMVI, 17.2 µM (inactive); in the assay with ACHN, 31.5 µM (inactive). In addition, the GI50 in the assay with HT-29 was 34.8 µM (inactive); with CCRF-CEM, > 24.6 µM (inactive); in the assay on OVCAR-3, 16.4 µM (inactive); with SF-268 it was 26.8 µM (inactive); in the assay on Malme-3M, 30.8 µM (inactive).
Regarding `Cc1cccc(C(C)C)c1NC(=O)CC1C(=O)Nc2ccccc2S1(=O)=O` (stereo unspecified), the GI50 in the assay on SK-OV-3 is > 100 µM (inactive); with A549 it was 16.8 µM (inactive); in the assay on LXFL 529 it was 16.7 µM (inactive); with MOLT-4, 0.408 µM (active); in the assay with UACC-257, 23.6 µM (inactive); in the assay with OVCAR-4, 12.2 µM (inactive). The GI50 in the assay on OVCAR-5 is 39.7 µM (inactive); in the assay with SF-295, 18.2 µM (inactive); in the assay on NCI-H23, 9.06 µM (inactive); in the assay with K562, 2.22 µM (inactive); with LOX IMVI it was 22.2 µM (inactive); in the assay on ACHN, 22.9 µM (inactive). In addition, the GI50 in the assay on HT-29 was 12.6 µM (inactive); in the assay on CCRF-CEM it was 7.24 µM (inactive); with OVCAR-3, 12.2 µM (inactive); in the assay with SF-268, 12.8 µM (inactive); in the assay on Malme-3M, 16.3 µM (inactive).
Turning to `O=C(Cc1ccccc1)Oc1ccc2c(-c3ccccc3)c(C(=O)Nc3ccc(Cl)cc3)c(=O)oc2c1`, the GI50 with SK-OV-3, in the assay with A549, with LXFL 529, with MOLT-4, in the assay with UACC-257 and in the assay with OVCAR-4 was > 100 µM (inactive) throughout. Besides, the GI50 in the assay with OVCAR-5, in the assay with SF-295, in the assay on NCI-H23, with K562, in the assay with LOX IMVI and with ACHN was > 100 µM (inactive) in each case. Moreover, the GI50 in the assay on HT-29, in the assay on CCRF-CEM, in the assay with OVCAR-3, in the assay on SF-268 and in the assay with Malme-3M was > 100 µM (inactive) throughout.
As to `Cc1ccccc1Nc1nc2c(s1)C(=O)c1ccccc1C2=O`, the GI50 is 21.8 µM (inactive) in the assay with SK-OV-3; 10.2 µM (inactive) in the assay on A549; 4.61 µM (inactive) in the assay on LXFL 529; 2.43 µM (inactive) in the assay on MOLT-4; 5.5 µM (inactive) in the assay with UACC-257; 4.53 µM (inactive) in the assay on T47D. In addition, the GI50 in the assay with OVCAR-4 is 2.02 µM (inactive); in the assay on BT-549, 2.46 µM (inactive); in the assay on OVCAR-5 it was 21.5 µM (inactive); in the assay with SF-295, 18 µM (inactive); in the assay with NCI-H23, 3.43 µM (inactive); with K562, 3.07 µM (inactive). For the same compound, the GI50 was 2.26 µM (inactive) in the assay on LOX IMVI; 4.95 µM (inactive) in the assay with ACHN; 19.1 µM (inactive) in the assay on HT-29; 3.34 µM (inactive) in the assay with CCRF-CEM; 2.24 µM (inactive) in the assay with OVCAR-3; 4.33 µM (inactive) in the assay with SF-268. Further, the GI50 in the assay with Malme-3M was 15 µM (inactive).
Turning to `COC(=O)C1=C(O)C(O)=C(C(=O)OC)C1`, the GI50 with SK-OV-3, with A549, in the assay with LXFL 529, in the assay on MOLT-4, in the assay with UACC-257 and in the assay with OVCAR-4 was > 100 µM (inactive) in each case. For the same compound, the GI50 in the assay on OVCAR-5, in the assay on SF-295, in the assay with NCI-H23, in the assay on K562, with LOX IMVI and with ACHN was > 100 µM (inactive) each time. The GI50 with HT-29, in the assay on CCRF-CEM, with OVCAR-3, in the assay on SF-268 and in the assay with Malme-3M was > 100 µM (inactive) in each case.
